Reference: patent US20240261249A1, “NOVEL SQUARAMIDE DERIVATIVE AND USE THEREOF” (PUSAN NATIONAL UNIVERSITY INDUSTRY-UNIVERSITY COOPERATION …, priority 2021, published 2024)
Like-named read-outs stand apart in the source and are kept apart here.

Legend:
Assay type in all cases: cell-based
Phospho-eIF2α (Ser51) = Phospho-eIF2α (Ser51) Sandwich ELISA in K562 cells; details: Homo sapiens, K562, 6 h, serum-free RPMI, 10 μM compound, control = 1, read-out: eIF2α phosphorylation, absorbance standardized to control (DMSO-treated) set to 1, at 10 μM
Method: Pathscan Phospho-eIF2α (Ser51) Sandwich ELISA Kit #7286 from Cell signaling was used. The K562 cell line was cultured in serum-free RPMI medium at 37° C. in the presence of 5% CO2. Cells were treated with test compounds at a concentration of 10 μM. Six hours after compound treatment, the cells were lysed with a lysis buffer included in the kit to obtain 50 μg of protein by quantification. Afterwards, ELISA assay was performed according to the manufacturer's protocol to obtain absorbance. The absorbance for each obtained compound was standardized to a value of which the control (DMSO-treated) is set to 1.

K562 cell line = assay: CCK-8 anti-proliferative assay, K562; details: Homo sapiens, 72 h, K562, culture for 3 days
Method: CCK-8 assay (cell counting kit-8 assay, Dojindo, Kumamoto, Japan) was performed. The K562 cell line was cultured in RPMI medium supplemented with 10% FBS and 1% ABAM at 37° C. in the presence of 5% CO2. Cells were treated with test compounds at concentrations of 0 μM, 1.25 μM, 2.5 μM, 5 μM, 10 μM, and 20 μM, respectively. After culture for 3 days, 10 μL of CCK-8 solution was treated and cultured for 4 hours. Subsequently, the absorbance was measured at 450 nm to obtain the IC50 value of each compound.
The experimental values for the K562 cell line are identical to biological Example 2.

[1] = tested on: PBMC (peripheral blood monocyte cells isolated from normal donors); assay: CCK-8 assay, PBMC (normal cells); details: for IC50: 72 h, PBMC normal cells, culture for 3 days, CCK-8, tested 0-20 μM; for SI (selectivity index): K562 cells compared to PBMC
Method: PBMC (peripheral blood monocyte cells isolated from normal donors) cell lines were dispensed in RPMI medium supplemented with 10% FBS and 1% ABAM at 37° C. in the presence of 5% CO2, and then the test compounds were treated at concentrations of 0 μM, 1.25 μM, 2.5 μM, 5 μM, 10 μM, and 20 μM, respectively. After culture for 3 days, 10 μL of CCK-8 solution was treated and cultured for 4 hours. Subsequently, the absorbance at 450 nm was measured to obtain the IC50 value of each compound.

[2] = CCK-8, Table 3 (identical to Example 2), tested 0-20 μM, read-out: IC50 K562

SMILES	IC50 (K562 cell line; CCK-8, Table 2, read-out: IC50) [µM]	IC50 (K562 cell line; [2]) [µM]	activity at 10 µM (Phospho-eIF2α (Ser51)) [%]	IC50 [1] [µM]	SI (selectivity index) [1]
N#Cc1cc(Nc2c(N[C@H]3CC[C@H](Oc4ccc([N+](=O)[O-])cc4)CC3)c(=O)c2=O)cc(C(F)(F)F)c1 [Compound 85, 3-((2-(((1,4-trans)-4-(4-Nitrophenoxy)cyclohexyl)amino)-3,4-dioxocyclobut-1-en-1-yl)amino)-5-(trifluoromethyl)benzonitrile]	> 20		116		
N#Cc1ccc(O[C@H]2CC[C@H](Nc3c(Nc4cccc(Cl)c4)c(=O)c3=O)CC2)cc1 [Compound 19, 4-(((1,4-trans)-4-((2-((3-Chlorophenyl)amino)-3,4-dioxocyclobut-1-en-1-yl)amino)cyclohexyl)oxy)benzonitrile]	> 20		111		
N#Cc1ccc(O[C@H]2CC[C@H](Nc3c(Nc4ccccc4C(F)(F)F)c(=O)c3=O)CC2)cc1 [Compound 71, 4-(((1,4-trans)-4-((3,4-Dioxo-2-((2-(trifluoromethyl)phenyl)amino)cyclobut-1-en-1-yl)amino)cyclohexyl)oxy)benzonitrile]	> 20		180		
COc1cccc(Nc2c(N[C@H]3CC[C@H](Oc4ccc([N+](=O)[O-])cc4)CC3)c(=O)c2=O)c1 [Compound 35, 3-((3-Methoxyphenyl)amino)-4-(((1,4-trans)-4-(4-nitrophenoxy)cyclohexyl)amino)cyclobut-3-ene-1,2-dione]	> 20		105		
O=c1c(Nc2ccccc2C(F)(F)F)c(N[C@H]2CC[C@H](Oc3ccc(C(F)(F)F)cc3)CC2)c1=O [Compound 70, 3-(((1,4-trans)-4-(4-(Trifluoromethyl)phenoxy)cyclohexyl)amino)-4-((2-(trifluoromethyl)phenyl)amino)cyclobut-3-ene-1,2-dione]	> 20		194		
CS(=O)(=O)c1ccc(O[C@H]2CC[C@H](Nc3c(Nc4ccc(C(F)(F)F)cc4)c(=O)c3=O)CC2)cc1 [Compound 49, 3-(((1,4-trans)-4-(4-(Methylsulfonyl)phenoxy)cyclohexyl)amino)-4-((4-(trifluoromethyl)phenyl)amino)cyclobut-3-ene-1,2-dione]	> 20		102		
O=c1c(Nc2cccc(Cl)c2)c(N[C@H]2CC[C@H](Oc3ccc([N+](=O)[O-])cc3)CC2)c1=O [Compound 20, 3-((3-Chlorophenyl)amino)-4-(((1,4-trans)-4-(4-nitrophenoxy)cyclohexyl)amino)cyclobut-3-ene-1,2-dione]	16.1	16.1	190	20	1.40

These reach a lower IC50 (K562 cell line; CCK-8, Table 2, read-out: IC50). Values come first.

IC50 (K562 cell line; CCK-8, Table 2, read-out: IC50) [µM]	IC50 (K562 cell line; [2]) [µM]	SMILES	activity at 10 µM (Phospho-eIF2α (Ser51)) [%]	IC50 [1] [µM]	SI (selectivity index) [1]
14.2	14.2	CS(=O)(=O)c1ccc(O[C@H]2CC[C@H](Nc3c(Nc4cc(C#N)cc(C(F)(F)F)c4)c(=O)c3=O)CC2)cc1 [Compound 86, 3-((2-(((1,4-trans)-4-(4-(Methylsulfonyl)phenoxy)cyclohexyl)amino)-3,4-dioxocyclobut-1-en-1-yl)amino)-5-(trifluoromethyl)benzonitrile]	168	21	1.31
12.2	12.2	O=c1c(Nc2cccc(C(F)(F)F)c2)c(N[C@H]2CC[C@H](Oc3ccc([N+](=O)[O-])cc3)CC2)c1=O [Compound 25, 3-(((1,4-trans)-4-(4-Nitrophenoxy)cyclohexyl)amino)-4-((3-(trifluoromethyl)phenyl)amino)cyclobut-3-ene-1,2-dione]	140	16	1.27
10.1	10.1	N#Cc1ccc(O[C@H]2CC[C@H](Nc3c(Nc4cc(C#N)cc(C(F)(F)F)c4)c(=O)c3=O)CC2)cc1 [Compound 84, 3-((2-(((1,4-trans)-4-(4-Cyanophenoxy)cyclohexyl)amino)-3,4-dioxocyclobut-1-en-1-yl)amino)-5-(trifluoromethyl)benzonitrile]	143	29.4	2.26
6.8	6.8	CC(C)(C)c1cccc(Nc2c(N[C@H]3CC[C@H](Oc4ccc(C(F)(F)F)cc4)CC3)c(=O)c2=O)c1 [Compound 28, 3-((3-(tert-Butyl)phenyl)amino)-4-(((1,4-trans)-4-(4-(trifluoromethyl)phenoxy)cyclohexyl)amino)cyclobut-3-ene-1,2-dione]		19.4	2.86
5.94	5.94	N#Cc1ccc(O[C@H]2CC[C@H](Nc3c(Nc4cccc(C(F)(F)F)c4)c(=O)c3=O)CC2)cc1 [Compound 24, 4-(((1,4-trans)-4-((3,4-Dioxo-2-((3-(trifluoromethyl)phenyl)amino)cyclobut-1-en-1-yl)amino)cyclohexyl)oxy)benzonitrile]	195	22.5	3.82
5.69	5.69	CC(C)(C)c1cccc(Nc2c(N[C@H]3CC[C@H](Oc4ccc(S(C)(=O)=O)cc4)CC3)c(=O)c2=O)c1 [Compound 31, 3-((3-(tert-Butyl)phenyl)amino)-4-(((1,4-trans)-4-(4-(methylsulfonyl)phenoxy)cyclohexyl)amino)cyclobut-3-ene-1,2-dione]	150	35.1	6.10
5.09	5.09	CC(C)(C)c1cccc(Nc2c(N[C@H]3CC[C@H](Oc4ccc([N+](=O)[O-])cc4)CC3)c(=O)c2=O)c1 [Compound 30, 3-((3-(tert-Butyl)phenyl)amino)-4-(((1,4-trans)-4-(4-nitrophenoxy)cyclohexyl)amino)cyclobut-3-ene-1,2-dione]	112	12.8	2.61
4.09	4.09	CC(C)(C)c1cccc(Nc2c(N[C@H]3CC[C@H](Oc4ccc(C#N)cc4)CC3)c(=O)c2=O)c1 [Compound 29, 4-(((1,4-trans)-4-((2-((3-(tert-Butyl)phenyl)amino)-3,4-dioxocyclobut-1-en-1-yl)amino)cyclohexyl)oxy)benzonitrile]	176	17	3.82
4	4	N#Cc1cc(Nc2c(N[C@H]3CC[C@H](Oc4ccc(C(F)(F)F)cc4)CC3)c(=O)c2=O)cc(C(F)(F)F)c1 [Compound 83, 3-((3,4-Dioxo-2-(((1,4-trans)-4-(4-(trifluoromethyl)phenoxy)cyclohexyl)amino)cyclobut-1-en-1-yl)amino)-5-(trifluoromethyl)benzonitrile]	184	19.3	4.46
3.96	3.96	O=c1c(Nc2cccc(C(F)(F)F)c2)c(N[C@H]2CC[C@H](Oc3ccc(C(F)(F)F)cc3)CC2)c1=O [Compound 23, 3-(((1,4-trans)-4-(4-(Trifluoromethyl)phenoxy)cyclohexyl)amino)-4-((3-(trifluoromethyl)phenyl)amino)cyclobut-3-ene-1,2-dione]	201	10.8	2.77
